Where a name gives a salt, the structure may show the parent alone.
Columns and labels:
[1] = Shelf stability (precipitation) of the formulated compound; type: physicochemical; details: 0.6 mg/mL in 9.6% polyethylene glycol 300, 0.4% polysorbate 20 and 5% dextrose
Method: Compound 1 Tartrate salt solubility is equal to 0.1 mg/mL. […] This increase in solubility has a positive impact on the shelf stability of formulated Compound 1.

[2] = test system: human prostatic adenocarcinoma cancer PC3 cells; assay: Growth of PC3 prostatic tumors in SCID mice; type: in vivo; details: 5 consecutive intravenous injections; 4.84 μMoles/Kg (Compound 1 Mesylate Salt), 4.84 or 14.51 μMoles/Kg (Compound 66); FIG. 6
Method: The human prostatic adenocarcinoma cancer PC3 cells were purchased from the American Type Culture Collection (ATCC). These cells were confirmed to be free of mycoplasma infection. Cells were maintained in the Roswell Park Memorial Institute (RPMI), supplemented with 10% inactivated fetal bovine serum and 1% penicillin-streptomycin-L-Glutamine, under 5% carbon dioxide (CO2) at 37° C. For prostatic-tumor induction, cells were grown lower than 70% confluence in complete medium and then collected with trypsin (Bio Whittaker, Rockland, Me., USA). Cells were then centrifuged and washed 2 times in phosphate buffer solution (PBS) and resuspended in PBS at 1.5×10^6 cells/0.1 mL. PC3 cells were then transplanted subcutaneously into the flank of SCID mice (Charles River Laboratories, Wilmington, Mass., USA), as a suspension of tumor cells (1.5×10^6 cells in 100 μL PBS), under a laminar airflow hood. Eleven (11) days later, the size of each tumor was measured. […] Relative tumor size and volume was calculated as follows: length (cm)×[width (cm)]^2/2. […]

[3] = Solubility (0.2 μM filtration, LC/MS); type: physicochemical
Method: To determine whether a compound is soluble in a solution, the solution was filtered on 0.2 μM polytetrafluoroethylene filters (Whatman Inc. Clifton, N.J., USA) and the compound concentration in the filtrate was measured by LC/MS and compared to the expected concentration.
The column used was XTerra MS C18: 50×2.1 mm, 3.5 mm column at 20° C. Samples were injected and separated under the following conditions: The mobile phase “A” consisted of 5 mM ammonium formate, 0.1% formic acid in water and mobile phase “B” consisted of 5 mM ammonium formate, 0.1% formic acid in methanol. […] The Mass Spectrometer system consisted of a Waters ZQ2000 single quadrupole mass spectrometer (Waters, Milford, Mass., USA) equipped with an Electrospray Ionization Source (ES). The mass detector was operated in positive ion mode (ES+) and Selected Ion Recording mode (SIR). Compounds were detected at m/z equal to their respective molecular weight plus 1.

[4] = test system: C33A human cervical cancer cells; assay: Growth of C33A cervical tumors in SCID mice; type: in vivo, CB17 SCID/SCID mice
Method: (§1) There were three treatment groups of ten mice each: (a) a negative control group, (b) a positive control group and (c) a group treated with Compound 1 Tartrate.
(§2) Treatments started on day fourteen after C33A cells transplantation. Compound 1 Tartrate was administered IV once daily for five consecutive days at a dose of 4.5 mg/kg. Compound 1 Tartrate was prepared fresh daily in a vehicle solution of 5% Dextrose (Abbot Laboratories, QC, Canada) and 2% polysorbate 20 (Sigma, St. Louis, Mo., USA). The negative control group was treated with vehicle alone. The injection volume for both Compound 1 Tartrate group and the negative control group was 150 μl.
(§3) Observation continued for 40 days after initial tumor implantation.

[5] = test system: cancer cell lines H1299 and C33A; normal cell lines HMEC and MRC-5; assay: ATP levels in cancer versus normal cell lines (FIG. 1); type: cell-based; details: 72 hours after treatment with 0.5 μM
Method: One day after plating, the cells were treated with various concentrations of Compound 1 Tartrate. Stock solutions of the Compound 1 Tartrate were prepared in dimethyl sulfoxide (Sigma-Aldrich Inc., St. Louis, Mo., USA), diluted in the recommended media and then added to the cells. The total dimethyl sulfoxide on the cells was 1%. […] The results were plotted relative to untreated control cells, which were set at a value of 100.

[6] = Body weight and deaths of tumor-bearing SCID mice under treatment; type: in vivo, CB17 SCID/SCID mice; details: for change in body weight: 4.5 mg/kg IV once daily for five days, FIG. 2
Method: as §1, §2, §3

[7] = test system: calf intestinal alkaline phosphatase; assay: Conversion of phosphate pro-drug by calf intestinal alkaline phosphatase in vitro; type: in vitro ADME; details: 15 μM, 0.02 U/100 μL enzyme, pH 7.4, 30-120 minutes; FIG. 5
Method: (§4) The conversion into biologically active drug of phosphate pro-drugs by calf intestinal alkaline phosphatase and human placental alkaline phosphatase was measured in vitro using purified enzymes. Purified calf intestinal alkaline phosphatase (Roche Diagnostic Inc. Laval, Quebec, Canada) or human placental alkaline phosphatase (Sigma-Aldrich Canada Ltd. Oakville, Ontario, Canada) was added at a concentration of 0.02 U/100 μL to a solution containing 15 μM of Compound 66, 20 mM Tris-HCl, pH 7.4 and 0.9% NaCl. The solutions were incubated for 30, 60 or 120 minutes. A solution containing 15 μM of Compound 66, 20 mM Tris-HCl, pH 7.4 and 0.9% NaCl was used as a reference (time=0 minutes). To each solution, an equal volume (100 μL) of ice-cold acetonitrile was added, and then the mixture was vortexed and transferred to glass vials. A standard concentration curve of the pro-drug and the drug was prepared in 10 mM Tris-HCl, pH 7.4, 0.45% NaCl and 50% acetonitrile. All samples were immediately analyzed by LC/MS.

[8] = target: T1, human placental alkaline phosphatase (Homo sapiens, UniProt P05187); assay: Conversion of phosphate pro-drug by human placental alkaline phosphatase in vitro; type: in vitro ADME; details: 15 μM, 0.02 U/100 μL enzyme, pH 7.4, 30-120 minutes; FIG. 4
T1 construct: purchased Sigma-Aldrich Canada Ltd
Method: as §4

T1 sequence (P05187 23-506): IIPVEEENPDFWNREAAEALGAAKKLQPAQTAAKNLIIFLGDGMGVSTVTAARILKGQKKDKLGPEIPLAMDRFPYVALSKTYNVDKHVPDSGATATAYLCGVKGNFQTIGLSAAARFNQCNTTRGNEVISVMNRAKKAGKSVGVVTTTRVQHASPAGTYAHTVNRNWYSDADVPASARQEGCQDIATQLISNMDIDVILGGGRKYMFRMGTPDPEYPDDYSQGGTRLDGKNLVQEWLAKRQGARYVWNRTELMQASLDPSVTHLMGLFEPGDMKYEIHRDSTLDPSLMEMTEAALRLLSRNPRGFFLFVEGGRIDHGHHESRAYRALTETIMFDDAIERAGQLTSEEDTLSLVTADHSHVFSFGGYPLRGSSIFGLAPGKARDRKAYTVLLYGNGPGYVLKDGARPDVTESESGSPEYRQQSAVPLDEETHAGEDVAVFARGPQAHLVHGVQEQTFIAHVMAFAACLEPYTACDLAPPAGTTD

Structure (SMILES): COC1=CC(c2cc3ccccc3[nH]2)=N/C1=C\c1[nH]c(C)cc1C [Compound 1 Mesylate Salt]
- precipitation of the formulation [1]: shows no evidence of precipitation 72 hours after its preparation
- growth of prostatic tumors [2]: significantly reduce the growth of prostatic tumors in mice

Structure (SMILES): COC1=CC(c2cc3ccccc3[nH]2)=N/C1=C\c1[nH]c(C)cc1C [Compound 1 tartrate]
- precipitation of the formulation ([1]; listed as Compound 1 Tartrate Salt): tends to precipitate one hour after its preparation
- solubility ([3]; water (stated for Compound 66), filtrate of 0.2 μM filter by LC/MS, listed as Compound 1 Tartrate salt): 100 µg/mL
- reduction in tumor growth compared to vehicle ([4]; 4.5 mg/kg IV once a day for five days, FIG. 3): statistically significant (p<0.0001) reduction in tumor growth
- average tumor size compared to vehicle ([4]; days 36 and 39, 4.5 mg/kg): significantly (p<0.001) smaller tumors on average
- effect on ATP levels in cancer cells versus normal cells [5]: significantly more effective at lowering ATP levels in the cancer cell lines H1299 and C33A compared with the ATP levels in normal cell lines HMEC and MRC-5
- change in body weight [6]: no significant changes in body weight
- change in body weight ([6]; listed as Compound 1 Tartrate): non-significant weight loss

Structure (SMILES): COC1=CC(c2cc3ccccc3[nH]2)=N/C1=C\c1[nH]c(C)cc1C [Compound 1]
- solubility in water (in words) ([3]; water): poorly soluble in water

Structure (SMILES): COC1=CC(c2cc3ccccc3n2C(=O)CC(C)(C)c2c(C)cccc2OP(=O)(O)O)=N/C1=C/c1[nH]c(C)cc1C [Compound 66]
- conversion of pro-drug into Compound 1 [7]: convert a fraction of the pro-drug Compound 66 present in solution into the drug Compound 1 within two hours
- growth of prostatic tumors [2]: significantly reduce the growth of prostatic tumors in mice
- conversion of pro-drug into Compound 1 [8]: convert a fraction of the pro-drug Compound 66 present in solution into the drug Compound 1 within two hours

Structure (SMILES): N.N.[Cl][Pt][Cl] [cisplatin]
- deaths in the group ([6]; days 29 and 32, 4 mg/kg IP, group of ten mice): Two mice died
- body weight lost by the mouse that died ([6]; mouse that died on day 29, 4 mg/kg IP): 2.2 g
- body weight lost by the mouse that died ([6]; mouse that died on day 32, 4 mg/kg IP): 7 g

Reference: patent US8420638B2, “Triheterocyclic compounds and compositions thereof” (Gemin X Pharmaceuticals Canada Inc., priority 2003, dated 2013)
